Legend:
[1] = biological target: Human plasma kallikrein (Homo sapiens (Human), UniProt P03952); experiment: Determination of the IC50 for plasma kallikrein; type: biochemical; conditions: read-out: IC50 (human PKal)
Protocol: Determination of the IC50 for Plasma Kallikrein
(§1) Human plasma kallikrein (Protogen) was incubated at 25° C. with the fluorogenic substrate H-DPro-Phe-Arg-AFC and various concentrations of the test compound. Residual enzyme activity (initial rate of reaction) was determined by measuring the change in […] at 410 nm and the IC50 value for the test compound was determined.

[2] = biological target: Human KLK1 (Homo sapiens (Human), UniProt P06870); experiment: Determination of the IC50 for KLK1; type: biochemical; conditions: human KLK1, 25° C., substrate H-DVal-Leu-Arg-AFC
Human KLK1, sequence (P06870 25-262): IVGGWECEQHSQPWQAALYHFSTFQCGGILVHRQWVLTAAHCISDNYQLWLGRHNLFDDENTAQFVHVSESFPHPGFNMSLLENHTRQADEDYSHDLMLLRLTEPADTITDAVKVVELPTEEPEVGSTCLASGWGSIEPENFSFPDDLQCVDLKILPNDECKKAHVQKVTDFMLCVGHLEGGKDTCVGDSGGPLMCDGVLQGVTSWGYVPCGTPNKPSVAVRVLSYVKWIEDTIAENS
Protocol: Determination of the IC50 for KLK1
as §1, with “KLK1 (Callbiochem)” for “plasma kallikrein (Protogen)”, “H-DVal-Leu-Arg-AFC” for “H-DPro-Phe-Arg-AFC”

[3] = Pharmacokinetics following a single oral dose in rats; type: in vivo; conditions: rat, male Sprague-Dawley rats, nominal 10 mg/kg in 10% DMSO/10% cremophor/80% SWFI, plasma, actual dose 7.6 mg/kg (Example 115), 8.4 mg/kg (Example 85)
Protocol: Pharmacokinetic studies of the compounds in Table 15 were performed to assess the pharmacokinetics following a single oral dose in male Sprague-Dawley rats. Two rats were given a single po dose of 5 mL/kg of a nominal 2 mg/mL (10 mg/kg) composition of test compound in 10% DMSO/10% cremophor/80% SWFI. Following dosing, blood samples were collected over a period of 24 hours. Sample times were 5, 15 and 30 minutes then 1, 2, 4, 6, 8 and 12 hours. Following collection, blood samples were centrifuged and the plasma fraction analysed for concentration of test compound by LCMS.

[4] = biological target: Human FXIa (Homo sapiens (Human), UniProt P03951); experiment: Determination of the % inhibition for FXIa; type: biochemical; conditions: 40 μM of the test compound, human FXIa, 25° C.; for inhibition at 40 µM: read-out: % Inhibition @ 40 μM (human FXIa)
Human FXIa, sequence (P03951 388-625 limits assumed): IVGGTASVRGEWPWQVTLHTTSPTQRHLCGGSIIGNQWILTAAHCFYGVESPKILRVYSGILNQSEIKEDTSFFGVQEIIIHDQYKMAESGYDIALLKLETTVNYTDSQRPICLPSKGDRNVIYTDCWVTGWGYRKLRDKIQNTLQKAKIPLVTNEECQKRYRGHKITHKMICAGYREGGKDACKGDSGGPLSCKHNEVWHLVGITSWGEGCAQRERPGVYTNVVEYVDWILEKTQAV
Human FXIa, sequence (P03951 19-387 partner limits assumed): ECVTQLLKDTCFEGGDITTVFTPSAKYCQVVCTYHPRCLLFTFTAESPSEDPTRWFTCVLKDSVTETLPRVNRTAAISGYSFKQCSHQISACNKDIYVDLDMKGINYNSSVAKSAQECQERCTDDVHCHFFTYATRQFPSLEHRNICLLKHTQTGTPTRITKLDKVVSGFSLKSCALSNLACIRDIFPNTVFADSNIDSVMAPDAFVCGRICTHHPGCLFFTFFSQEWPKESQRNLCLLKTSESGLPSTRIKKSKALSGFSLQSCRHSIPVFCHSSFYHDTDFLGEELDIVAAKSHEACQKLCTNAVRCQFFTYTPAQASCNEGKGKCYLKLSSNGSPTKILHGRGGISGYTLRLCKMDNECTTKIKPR
Protocol: Determination of the % Inhibition for FXIa
Human FXIa (Enzyme Research Laboratories) was incubated at 25° C. with the fluorogenic substrate Z-Gly-Pro-Arg-AFC and 40 μM of the test compound. Residual enzyme activity (initial rate of reaction) was determined by measuring the change in […].

Human plasma kallikrein, sequence (P03952 391-638): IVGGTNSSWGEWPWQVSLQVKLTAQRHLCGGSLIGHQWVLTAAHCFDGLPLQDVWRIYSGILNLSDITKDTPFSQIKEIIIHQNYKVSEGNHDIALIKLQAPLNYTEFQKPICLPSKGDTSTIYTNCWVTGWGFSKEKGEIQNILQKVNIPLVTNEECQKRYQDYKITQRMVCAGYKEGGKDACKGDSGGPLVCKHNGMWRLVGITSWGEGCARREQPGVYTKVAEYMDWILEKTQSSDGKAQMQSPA
Human plasma kallikrein, sequence (P03952 20-390 partner): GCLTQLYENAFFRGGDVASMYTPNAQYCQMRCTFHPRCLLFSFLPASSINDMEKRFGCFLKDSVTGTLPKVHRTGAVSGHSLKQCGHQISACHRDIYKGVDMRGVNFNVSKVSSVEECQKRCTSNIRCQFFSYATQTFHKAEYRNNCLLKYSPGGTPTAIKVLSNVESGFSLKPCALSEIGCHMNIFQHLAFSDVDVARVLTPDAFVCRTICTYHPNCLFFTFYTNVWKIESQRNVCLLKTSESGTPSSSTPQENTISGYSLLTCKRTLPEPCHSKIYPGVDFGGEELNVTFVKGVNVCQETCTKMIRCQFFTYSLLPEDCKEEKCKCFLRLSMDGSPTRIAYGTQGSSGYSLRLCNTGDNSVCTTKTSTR

Compound | IC50 [1] | IC50 [2] | Cmax [3] | Tmax [3] | inhibition at 40 µM [4] | % Inhibition @ 40 μM (human FXIa) [4]
C[C@@H](CNC(=O)c1cn(Cc2ccc(Cn3ccccc3=O)cc2)nc1N)Oc1cccc(Cl)c1 [Example 115, 3-Amino-N-[(2S)-2-(3-chlorophenoxy)propyl]-1-({4-[(2-oxopyridin-1-yl)methyl]phenyl}methyl)-pyrazole-4-carboxamide] | 0.0056 µM | > 40 µM | 538 ng/mL | 30 min | – | –
C[C@H](COc1cccc(Cl)c1)NC(=O)c1cn(Cc2ccc(Cn3ccccc3=O)cc2)nc1N [Example 113, 3-amino-N-[(2R)-1-(3-chlorophenoxy)propan-2-yl]-1-({4-[(2-oxopyridin-1-yl)methyl]phenyl}methyl)pyrazole-4-carboxamide] | 0.316 µM | > 40 µM | – | – | 3% | –
Nc1nn(Cc2ccc(Cn3ccccc3=O)cc2)cc1C(=O)NCCCn1cc(Cl)cn1 [Example 21, 3-amino-N-[3-(4-chloropyrazol-1-yl)propyl]-1-({4-[(2-oxopyridin-1-yl)methyl]phenyl}methyl)pyrazole-4-carboxamide] | 2.79 µM | > 40 µM | – | – | 56% | –
O=C(NCCOc1cccc(Cl)c1)c1cnn(Cc2ccc(Cn3ccccc3=O)cc2)c1 [Example 36, N-[2-(3-chlorophenoxy)ethyl]-1-({4-[(2-oxopyridin-1-yl)methyl]phenyl}methyl)pyrazole-4-carboxamide] | 0.0061 µM | > 40 µM | – | – | 0% | –
Cc1cc(C(=O)NCCOc2cccc(Cl)c2)c(C)n1Cc1csc(-c2ccccc2)n1 [Example 48, N-[2-(3-chlorophenoxy)ethyl]-2,5-dimethyl-1-[(2-phenyl-1,3-thiazol-4-yl)methyl]pyrrole-3-carboxamide] | 6.62 µM | > 10 µM | – | – | – | 3%
CN(C(=O)CNC(=O)c1cn(Cc2ccc(Cn3ccccc3=O)cc2)nc1N)c1cccc(Cl)c1 [Example 40, 2-{[3-amino-1-({4-[(2-oxopyridin-1-yl)methyl]phenyl}methyl)pyrazol-4-yl]formamido}-N-(3-chlorophenyl)-N-methylacetamide] | 0.0126 µM | > 40 µM | – | – | 0% | –
Nc1nn(Cc2ccc(Cn3ccccc3=O)cc2)cc1C(=O)N[C@@H]1CCN(c2cccc(Cl)c2)C1=O [Example 110, 3-amino-N-[(3R)-1-(3-chlorophenyl)-2-oxopyrrolidin-3-yl]-1-({4-[(2-oxopyridin-1-yl)methyl]phenyl}methyl)pyrazole-4-carboxamide] | 0.004 µM | > 40 µM | – | – | 13% | –

Now from value to compound, other results behind:

IC50 [1] | IC50 [2] | Cmax [3] | Tmax [3] | inhibition at 40 µM [4] | Compound | % Inhibition @ 40 μM (human FXIa) [4]
0.0035 µM | > 40 µM | 228 ng/mL | 45 min | 1% | Cc1cccn(Cc2ccc(Cn3cc(C(=O)NCCOc4cccc(Cl)c4)c(N)n3)cc2)c1=O [Example 85, 3-amino-N-[2-(3-chlorophenoxy)ethyl]-1-({4-[(3-methyl-2-oxopyridin-1-yl)methyl]phenyl}methyl)pyrazole-4-carboxamide] | –
0.0928 µM | > 40 µM | – | – | 7% | Nc1nn(Cc2ccc(Cn3ccccc3=O)cc2)cc1C(=O)NCCOc1cc(Cl)ccc1Cl [Example 34, 3-amino-N-[2-(2,5-dichlorophenoxy)ethyl]-1-({4-[(2-oxopyridin-1-yl)methyl]phenyl}methyl)pyrazole-4-carboxamide] | –
0.0246 µM | > 40 µM | – | – | – | Cc1ccc(OCCNC(=O)c2cn(Cc3ccc(Cn4ccccc4=O)cc3)nc2N)cc1Cl [Example 15, 3-amlno-N-[2-(3-chloro-4-methylphenoxy)ethyl]-1-({4-[(2-oxopyridin-1-yl)methyl]phenyl}methyl)pyrazole-4-carboxamide] | 1%
7.15 µM | > 40 µM | – | – | 4% | CCOC(=O)c1cccc(Cn2cc(C(=O)NCCOc3cccc(Cl)c3)c(N)n2)c1 [Example 62, ethyl 3-[(3-amino-4-{[2-(3-chlorophenoxy)ethyl]carbamoyl}pyrazol-1-yl)methyl]benzoate] | –
> 10 µM | > 40 µM | – | – | 2% | Cn1ncc2cc(Cn3cc(C(=O)NCCOc4cccc(Cl)c4)c(N)n3)ccc21 [Example 93, 3-amino-N-[2-(3-chlorophenoxy)ethyl]-1-[(1-methylindazol-5-yl)methyl]pyrazole-4-carboxamide] | –
> 10 µM | > 40 µM | – | – | 0% | COc1cc(Cn2cc(C(=O)NCCOc3cccc(Cl)c3)c(N)n2)ccn1 [Example 73, 3-amino-N-[2-(3-chlorophenoxy)ethyl]-1-[(2-methoxypyridin-4-yl)methyl]pyrazole-4-carboxamide] | –
3.67 µM | > 40 µM | – | – | 0% | Nc1nn(Cc2ccc(COc3ncccn3)cc2)cc1C(=O)NCCOc1cccc(Cl)c1 [Example 75, 3-amino-N-[2-(3-chlorophenoxy)ethyl]-1-({4-[(pyrimidin-2-yloxy)methyl]phenyl}methyl)pyrazole-4-carboxamide] | –

— patent US10781181B2, “N-((het) arylmethyl)-heteroaryl-carboxamides compounds as plasma kallikrein inhibitors” (Kalvista Pharmaceuticals Limited, priority 2014, dated 2020)
